Results from US20140037604A1, “NUTRITIONAL COMPOSITIONS COMPRISING ALPHA-HYDROXYISOCAPROIC ACID” (NESTEC S.A., priority 2011, published 2014).
“Also recorded” adds a separate entry of the source. Read-outs that look alike come from different tables or passages of the source.

Assays:
[1] = tested on: intestinal mammalian target of rapamycin (mTOR); conditions: piglet stressed with LPS; cited from earlier work
[2] = tested on: protein synthesis in gastrocnemius, liver and heart; experiment: In vivo rate of tissue protein synthesis, flooding-dose technique with [3H]-L-phenylalanine; design: species or system male Wistar rats; conditions: for In-vivo-determined tissue protein synthesis: Liver / In-vivo-determined tissue protein synthesis: Heart: freely fed rats; for In-vivo-determined tissue protein synthesis: Heart: no unit in table (text b163: nmol Phe/h/mg protein); for Immobilization (casting)-induced decrease in muscle protein synthesis: gastrocnemius, 7 days of immobilization
Description: (§1) Water was provided ad libitum.
The in vivo rate of protein synthesis in gastrocnemius, liver and heart (ventricle only) was determined using the flooding-dose technique, exactly as described (Vary T C and Lang C H, Assessing effects of alcohol consumption on protein synthesis in striated muscles. Methods Mol Biol 447: 343-355, 2008). A P-50 catheter was placed in the left carotid artery for the withdrawal of blood. Rats were injected intravenously (IV) with [^3H]-L-phenylalanine (Phe; 150 mM, 30 μCi/ml; 1 ml/100 g body weight) and blood was collected 15 min later for determining the plasma Phe concentration and radioactivity. Thereafter, tissues were rapidly excised and a portion freeze-clamped and then stored at −70° C. The rate of protein synthesis was calculated by dividing the amount of radioactivity incorporated into protein by the plasma Phe specific radioactivity. The specific radioactivity of the plasma Phe was measured by high performance liquid chromatography (HPLC) analysis of supernatant from trichloroacetic acid (TCA) extracts of plasma. In addition, samples of fresh muscle were homogenized for Western blot and analysis of selected proteins and another piece of tissue used for qRT-PCR, as described below.

[3] = Blood chemistry profile, metabolic substrates and hormone (serum); type: in vivo, male Wistar rats; conditions: for Insulin: ELISA; for Insulin / HOMA-IR (homeostatic model assessment of insulin resistance) / Triglycerides / ALT / AST / Albumin / BUN / Bilirubin, total / Calcium / Chloride / Cholesterol / Creatinine / Glucose / LDH / Phosphorous / Potassium / Protein, total / Sodium: means ± SEM; for HOMA-IR (homeostatic model assessment of insulin resistance): calculated from insulin and glucose; for ALT / AST / Albumin / BUN / Bilirubin, total / Calcium / Chloride / Cholesterol / Creatinine / Glucose / LDH / Phosphorous / Potassium / Protein, total / Sodium: serum; for Sodium: all studies combined
Description: (§2) Blood was collected from the arterial catheter while rats were anesthetized and prior to injection of [^3H]-Phe. Blood was dispensed to determine standard hematological and biochemical endpoints. For hematology analyses, 250-500 μl of blood was dispensed to tubes containing EDTA (BD No. 365974; Fisher Scientific). Hematology analyses (Heska CBC-Diff Hematology Analyzer, Loveland, Colo.) included: red and white blood cell counts, hematocrit, hemoglobin, platelets, and differential leukocyte counts. Reticulocytes were counted manually using methylene blue stain. In addition, 900 μl blood was dispensed to a tube containing 100 μl of 0.109 M sodium citrate (BD Medical No. 363083; Fisher Scientific) for measurement of prothrombin time (BBL Fibrometer System, Cockeysville, Md.). The remaining blood was dispensed to a silicone-coated collection tube (BD No. 366381; Fisher Scientific) and allowed to clot. Clotted blood samples were centrifuged in a Beckman Coulter Allegra X-12R centrifuge at 3500 rpm for 5 min at 4° C., and the serum was collected and stored. Biochemical analyses on serum was performed on a Cobas Mira Plus Chemistry Analyzer (Diamond Diagnostics, Holliston, Mass.) and included: total bilirubin, glucose, aspartate aminotransferase, alanine aminotransferase, lactate dehydrogenase, albumin, calcium, creatinine, urea, phosphate, total cholesterol, chloride, and total protein. Serum sodium and potassium were analyzed by flame photometer (IL940; Instrumentation Laboratory, Lexington, Mass.). Triglycerides and free fatty acids (FFAs) were determined colorimetrically (Abcam, Cambridge, Mass.; Wako Diagnostics, Richmond, Va., respectively). Insulin was determined by ELISA (Alpco diagnostics, Salem, N.H.). The homeostatic model assessment of insulin resistance (HOMA-IR) was calculated to provide an estimate of whole-body insulin resistance (Turner R C, Holman R R, Matthews D, Hockaday T D and Peto J. Insulin deficiency and insulin resistance interaction in diabetes: estimation of their relative contribution by feedback analysis from basal plasma insulin and glucose concentrations. Metabolism 28: 1086-1096,1979).

Hematological profile = type: in vivo, male Wistar rats; conditions: means ± SEM; for Hematocrit / Hemoglobin / Lymphocytes / MCH / MCV / Neutrophils / Platelets / RBC / WBC: blood; for Protime (prothrombin time): citrated blood
Description: as §2

[4] = tested on: gastrocnemius of hindlimb-immobilized rats; experiment: Muscle atrophy and recovery after unilateral hindlimb immobilization (gastrocnemius weight); type: in vivo, male Wistar rats; conditions: for Muscle regrowth (gastrocnemius mass) 7 days after removal of the cast: 7 days immobilization + 7 days recovery, compared to control diet; for Decrease in gastrocnemius mass by immobilization: 7 days of cast immobilization, versus contralateral uncasted limb; for Mass of previously immobilized gastrocnemius compared to contralateral uncasted muscle: recovery day 14
Text: as §1

[5] = Organ weights of rats fed supplemented diets
Description: (§3) Animal protocols. The experiments described herein were broadly organized into two experimental series. Both studies used male Wistar rats (Charles River Breeding Laboratories, Cambridge, Mass.) which acclimated for 1 week in a controlled environment. Rats were shipped at 350-375 g and were approximately 12 wks of age. Water and standard rat chow were provide ad libitum.
(§4) The following custom diets were commercially prepared (Dytes, Bethlehem, Pa.): control diet (AIN93M), or isocaloric, isonitrogenous diets supplemented with α-hydroxy-isocaproic acid (HICA) or leucine (Leu) (Table 1). […] Therefore, animals were provided the dietary intervention for a period of 6 days prior to hindlimb immobilization.
(§5) The foot was positioned in plantar-flexion to induce maximal atrophy of the gastrocnemius and rats received 10 ml of 0.9% warmed (37° C.) sterile saline for resuscitation. […] Consequently, the contralateral limb served as the control in all subsequent experiments. After casting, rats were housed individually and were continued to be pair-fed for a period of 7 days. Water was provided ad libitum. On day 7 after casting, rats were anesthetized with pentobarbital and the cast atraumatically and rapidly (<2 min) removed (Stryker Instruments, Kalamzoo, Mich.).

[6] = rat, in vivo
Description: as §3, §4, §5

[7] = means ± SEM, all studies combined, no unit in table
[8] = means ± SEM, all studies combined
[9] = supplemented diet, means ± SEM, all studies combined

Which results are given for O=C(O)CCC(=O)C(=O)O [AKG, α-ketoglutarate]?
Crypt depth [1]: reduced crypt depth; Phosphorylation of intestinal mTOR [1]: increased phosphorylation; Villous height [1]: increased villous height

For CC(C)CC(O)C(=O)O (stereo not drawn) [HICA, α-hydroxy-isocaproic acid], which “Increment in protein synthesis in the previously immobilized muscle” value ([2]; after a 7-day recovery period, not statistically significant versus control-fed rats) is on record?
Its value is 0.77±0.17 nmol Phe/h/mg protein.

And the “Protein synthesis in the previously immobilized muscle compared to contralateral uncasted muscle” value ([2]; day 14 of recovery)?
Its value is “still increased”.

And the “Increment in muscle protein synthesis compared to other groups” value ([2]; day 14 of recovery, failed to achieve statistical significance)?
Its value is “tended to be increased”.

What about the “In-vivo-determined tissue protein synthesis: Liver” value [2, 7] of the same compound?
Its value is 24.41 ± 0.90.

And the “In-vivo-determined tissue protein synthesis: Heart” value [2, 8]?
Its value is 2.76 ± 0.11.

What about the “Immobilization (casting)-induced decrease in muscle protein synthesis” value [2] of the same compound?
The value was “no immobilization-induced decrease”.

What about the “Immobilization (casting)-induced decrease in muscle protein synthesis” value ([2]; listed as αHICA) of the same compound?
Its value is “prevented the casting-induced decrease in muscle protein synthesis”.

And the “In-vivo-determined tissue protein synthesis: GAstrocnemius (control)” value ([2]; uncasted control muscle, means ± SEM, all studies combined, no unit in table)?
The value was 1.26 ± 0.04.

What about the “Basal rate of protein synthesis in uncasted muscle, lower than control-fed rats” value ([2]; uncasted gastrocnemius) of the same compound?
The value was 10%.

What about the Insulin [3] of the same compound?
The Insulin was 1.90 ± 0.15 a ng/ml.

What about the “HOMA-IR (homeostatic model assessment of insulin resistance)” value [3] of the same compound?
Its value is 27.1 ± 3.2 a.

What about the Triglycerides [3] of the same compound?
Its Triglycerides is 609 ± 51 µmol/L.

And the “Markers of renal function (creatinine and BUN) compared to control values” ([3]; rat, in vivo)?
The value was “generally unaffected”.

What about the “Serum insulin concentration compared to control rats” value ([3]; rat, in vivo) of the same compound?
The value was “did not differ”.

What about the ALT [3] of the same compound?
Its ALT is 24 ± 1 U/L.

And the AST [3]?
The AST was 74 ± 4 U/L.

What about the Albumin [3] of the same compound?
The Albumin was 3.31 ± 0.04 g/dL.

What about the BUN [3] of the same compound?
The BUN was 16.2 ± 0.6a mg/dL.

And the “Bilirubin, total” value [3]?
The value was 0.5 ± 0.04 mg/dL.

What about the Calcium [3] of the same compound?
Its Calcium is 9.5 ± 0.1 mg/dL.

What about the Chloride [3] of the same compound?
Its Chloride is 101 ± 1 mmol/L.

And the Cholesterol [3]?
Its Cholesterol is 62 ± 3 mg/dL.

What about the Creatinine [3] of the same compound?
Its Creatinine is 0.3 ± 0.02 mg/dL.

What about the Glucose [3] of the same compound?
Its Glucose is 223 ± 11 mg/dL.

What about the LDH [3] of the same compound?
Its LDH is 232 ± 23 U/L.

And the Phosphorous [3]?
The Phosphorous was 5.8 ± 0.2a mg/dL.

And the Potassium [3]?
Its Potassium is 4.9 ± 0.1a mmol/L.

And the “Protein, total” value [3]?
Its value is 5.0 ± 0.1 g/dL.

And the Sodium [3]?
Its Sodium is 141 ± 1 mmol/L.

And the “Deleterious effects on whole-body and tissue-specific metabolic and hematological parameters” value ([3]; supplementation for up to 3 wks)?
The value was “no apparent deleterious effects”.

And the Hematocrit (Hematological profile)?
Its Hematocrit is 40 ± 1%.

What about the Hemoglobin (Hematological profile) of the same compound?
Its Hemoglobin is 15.2 ± 0.5 g/dL.

What about the Lymphocytes (Hematological profile) of the same compound?
The Lymphocytes was 70 ± 2%.

What about the MCH (Hematological profile) of the same compound?
The MCH was 17.9 ± 0.1 pg.

What about the MCV (Hematological profile) of the same compound?
Its MCV is 47 ± 1 fL.

What about the Neutrophils (Hematological profile) of the same compound?
Its Neutrophils is 24 ± 2%.

And the Platelets (Hematological profile)?
Its Platelets is 1207 ± 60 103/μl.

And the RBC (Hematological profile)?
The RBC was 8.49 ± 0.31 106/μl.

And the WBC (Hematological profile)?
The WBC was 2.5 ± 0.2 103/μl.

What about the “Protime (prothrombin time)” value (Hematological profile) of the same compound?
The value was 19 ± 1 s.

And the “Muscle regrowth (gastrocnemius mass) 7 days after removal of the cast” value [4]?
The value was “not altered”.

And the “Decrease in gastrocnemius mass by immobilization” value [4]?
Its value is 0.61 ± 0.09 g.

What about the “Mass of previously immobilized gastrocnemius compared to contralateral uncasted muscle” value [4] of the same compound?
The value was “did not differ; also recorded: complete recovery of mass”.

And the “Prevention or amelioration of the reduction in muscle mass produced by disuse” value ([4]; unilateral hindlimb immobilization)?
The value was “failed to prevent or ameliorate the accompanying reduction in muscle mass”.

And the “Organ weight: Liver” value ([5]; diet with α-HICA 50.4 g/kg or leucine 50 g/kg, means ± SEM, data combined from all studies)?
The value was 12.00 ± 0.35 g.

What about the “Kidney weight compared between diets” value ([5]; rat, in vivo) of the same compound?
Its value is “did not differ”.

And the “Organ weight: Adrenal” value [5, 9]?
Its value is 403 ± 16 mg.

What about the “Organ weight: Kidney” value [5, 9] of the same compound?
Its value is 1.22 ± 0.03 g.

And the “Organ weight: Spleen” value [5, 9]?
The value was 960 ± 37 mg.

And the “Organ weight: Testes” value [5, 9]?
The value was 1.82 ± 0.03 g.

What about the “Organ weight: Heart” value ([5]; ventricle only, supplemented diet, means ± SEM, all studies combined) of the same compound?
Its value is 1.13 ± 0.02 g.

Which results are given for CC(C)C[C@H](N)C(=O)O [Leucine, leucine]?
Protein synthesis in the previously immobilized muscle compared to contralateral uncasted muscle ([2]; day 14 of recovery, listed as Leu): not different from the uncasted muscle; also recorded: returned to basal values; In-vivo-determined tissue protein synthesis: Liver [2, 7]: 22.51 ± 0.88; In-vivo-determined tissue protein synthesis: Heart [2, 8]: 2.93 ± 0.11; Immobilization (casting)-induced decrease in muscle protein synthesis ([2]; listed as Leu): decreased protein synthesis to the same extent; also recorded: failed to prevent the casting-induced decrease in protein synthesis; Protein synthesis in the uncasted muscle compared to control-fed rats ([2]; uncasted gastrocnemius): did not differ; Insulin [3]: 3.64 ± 0.32 c ng/ml; HOMA-IR (homeostatic model assessment of insulin resistance) [3]: 47.7 ± 4.6b; Triglycerides [3]: 667 ± 52 µmol/L; HOMA-IR compared to control rats or those fed a HICA-containing diet ([3]; rat, in vivo): significantly greater; Markers of renal function (creatinine and BUN) compared to control values ([3]; rat, in vivo): generally unaffected; Serum phosphorus concentration, elevation compared to control values ([3]; rat, in vivo): 18%; Serum potassium concentration compared to control- or HICA-fed rats ([3]; rat, in vivo): lower; ALT [3]: 24 ± 1 U/L; AST [3]: 68 ± 4 U/L; Albumin [3]: 3.42 ± 0.03 g/dL; BUN [3]: 16.2 ± 0.5a mg/dL; Bilirubin, total [3]: 0.3 ± 0.02 mg/dL; Calcium [3]: 9.6 ± 0.1 mg/dL; Chloride [3]: 100 ± 1 mmol/L; Cholesterol [3]: 63 ± 4 mg/dL; Creatinine [3]: 0.3 ± 0.01 mg/dL; Glucose [3]: 214 ± 8 mg/dL; LDH [3]: 169 ± 21 U/L; Phosphorous [3]: 7.0 ± 0.2b mg/dL; Potassium [3]: 4.1 ± 0.1b mmol/L; Protein, total [3]: 5.0 ± 0.1 g/dL; Sodium [3]: 140 ± 1 mmol/L; Hematocrit (Hematological profile): 41 ± 1%; Hemoglobin (Hematological profile): 15.7 ± 0.3 g/dL; Lymphocytes (Hematological profile): 73 ± 3%; MCH (Hematological profile): 17.9 ± 0.2 pg; MCV (Hematological profile): 47 ± 1 fL; Neutrophils (Hematological profile): 23 ± 3%; Platelets (Hematological profile): 1206 ± 56 103/μl; RBC (Hematological profile): 8.98 ± 0.28 106/μl; WBC (Hematological profile): 2.7 ± 0.2 103/μl; Protime (prothrombin time) (Hematological profile): 18 ± 1 s; Muscle regrowth (gastrocnemius mass) 7 days after removal of the cast [4]: not altered; Decrease in gastrocnemius mass by immobilization [4]: 0.57 ± 0.08 g; Mass of previously immobilized gastrocnemius compared to contralateral uncasted muscle ([4]; listed as Leu): a reduction in mass of the previously immobilized muscle was still detected; also recorded: partial recovery of gastrocnemius mass; Kidney weight compared between diets [6]: did not differ
